{"source": "ChEMBL document CHEMBL1212847", "about": "“Synthesis and pharmacology of 1-methoxy analogs of CP-47,497” (Bioorg Med Chem, 2010)", "key": {"Cannabinoid receptor 1": {"target": "Cannabinoid receptor 1 (Rattus norvegicus, UniProt P20272)", "sequence (P20272 whole entry)": "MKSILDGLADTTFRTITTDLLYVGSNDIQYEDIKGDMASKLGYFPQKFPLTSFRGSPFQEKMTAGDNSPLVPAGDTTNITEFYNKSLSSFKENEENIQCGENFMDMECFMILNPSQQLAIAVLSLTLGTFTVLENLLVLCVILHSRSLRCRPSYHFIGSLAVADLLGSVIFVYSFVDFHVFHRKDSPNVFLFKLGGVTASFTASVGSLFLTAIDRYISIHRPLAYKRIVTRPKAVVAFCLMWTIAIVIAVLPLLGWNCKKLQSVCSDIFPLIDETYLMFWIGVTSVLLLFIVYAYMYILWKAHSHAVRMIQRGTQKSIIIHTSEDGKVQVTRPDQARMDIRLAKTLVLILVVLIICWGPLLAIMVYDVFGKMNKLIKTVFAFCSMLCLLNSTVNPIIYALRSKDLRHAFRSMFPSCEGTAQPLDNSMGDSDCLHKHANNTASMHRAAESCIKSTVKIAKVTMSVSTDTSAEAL", "test": "Displacement of [3H]CP-55940 from CB1 receptor in Sprague-Dawley rat brain cortex membranes", "type": "cell membranes, Membrane"}, "Cannabinoid receptor 2": {"target": "Cannabinoid receptor 2 (Homo sapiens, UniProt P34972)", "sequence (P34972 whole entry)": "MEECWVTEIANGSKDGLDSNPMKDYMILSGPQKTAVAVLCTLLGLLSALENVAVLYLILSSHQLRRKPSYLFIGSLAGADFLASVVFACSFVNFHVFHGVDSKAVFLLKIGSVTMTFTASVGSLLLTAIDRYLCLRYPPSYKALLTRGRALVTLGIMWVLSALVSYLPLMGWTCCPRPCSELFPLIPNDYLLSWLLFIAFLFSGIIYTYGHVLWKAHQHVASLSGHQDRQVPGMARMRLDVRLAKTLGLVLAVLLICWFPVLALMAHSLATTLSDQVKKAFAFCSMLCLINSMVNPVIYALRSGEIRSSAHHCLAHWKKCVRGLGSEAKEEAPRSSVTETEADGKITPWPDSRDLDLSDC", "test": "Displacement of [3H]CP-55940 from human CB2 receptor expressed in CHO cells after 1 hr by liquid scintillation spectrometry analysis", "type": "cell-based"}}}
{"molecule": "CCCCCCC(C)(C)c1ccc([C@H]2CCC[C@H](O)C2)cc1", "note": "(relative stereo)", "values": [{"measurement": "Ki", "setting": "Cannabinoid receptor 1", "value": 645, "unit": "nM"}, {"measurement": "Ki", "setting": "Cannabinoid receptor 2", "value": 178, "unit": "nM"}]}
{"molecule": "CCCCCCC(C)(C)c1ccc([C@H]2CCC[C@@H](O)C2)c(OC)c1", "note": "(relative stereo)", "values": [{"measurement": "Ki", "setting": "Cannabinoid receptor 1", "value": "> 10000", "unit": "nM"}, {"measurement": "Ki", "setting": "Cannabinoid receptor 2", "value": 808, "unit": "nM"}]}
{"molecule": "CCCCCCC(C)(C)c1ccc([C@H]2CCC[C@@H](O)C2)c(O)c1", "values": [{"measurement": "Ki", "setting": "Cannabinoid receptor 1", "value": 9.54, "unit": "nM"}]}
{"molecule": "CCCCCC(C)(C)c1ccc([C@H]2CCC[C@H](O)C2)c(OC)c1", "note": "(relative stereo)", "values": [{"measurement": "Ki", "setting": "Cannabinoid receptor 1", "value": 4120, "unit": "nM"}, {"measurement": "Ki", "setting": "Cannabinoid receptor 2", "value": 693, "unit": "nM"}]}
{"molecule": "CCCCCC(C)(C)c1ccc([C@H]2CCC[C@@H](O)C2)c(OC)c1", "note": "(relative stereo)", "values": [{"measurement": "Ki", "setting": "Cannabinoid receptor 1", "value": 4410, "unit": "nM"}, {"measurement": "Ki", "setting": "Cannabinoid receptor 2", "value": 553, "unit": "nM"}]}
